What was measured:
Type in all cases: in vivo
[1] = tested on: BRSNN, Brassica napus (spring rape); test: Greenhouse postemergence herbicidal effect, visual injury 20-22 d after application
Source text: (§1) Seeds of the desired test plant species were planted in a 90:10% v/v (volume/volume) mixture of PRO-MIX® BX (Premier Tech Horticulture, Quakertown, PA, USA) and PROFILE® GREENS GRADE™ (Profile Products LLC, Buffalo Grove, IL, USA) planting mixture, which typically has a pH of 5.2 to 6.2 and an organic matter content of at least 50 percent, in plastic pots with a surface area of 103.2 square centimeters (cm^2). In some aspects, to help ensure good germination and healthy plants, a fungicide treatment and/or other chemical or physical treatment was applied. The plants were grown for 7-36 days (d) in a greenhouse with an approximate 14-hour (h) photoperiod which was maintained at about 23° C. during the day and 22° C. during the night. Nutrients and water were added on a regular basis and supplemental lighting was provided with overhead metal halide 1000-Watt lamps as necessary. The plants were employed for testing when they reached the second or third true leaf stage.
(§2) Emulsifiable concentrates of each of each pyridine carboxylate herbicide (Compound A or Compound B) were prepared at 100 grams acid equivalent per liter (g ae/L). The emulsifiable concentrates also included a safener, cloquintocet mexyl, at 120 grams active ingredient per liter (g ai/L). An aliquot of each emulsifiable concentrate was placed in a 25 mL glass vial and diluted with an aqueous mixture of 1.25% (v/v) ACTIROB® B esterified rapeseed oil (Bayer Crop Science, Research Triangle Park, NC, USA) or MSO® Concentrate with LECI-TECH® methylated soybean oil (Loveland Products, Loveland, CO, USA) to obtain concentrated stock solutions at the highest application rate for each herbicide, based upon a 12 milliliter (mL) application volume at a rate of 187 liters per hectare (L/ha). The concentrated stock solutions were further diluted with an aqueous mixture of 1.25% v/v ACTIROB® B or MSO® Concentrate with LECI-TECH® to obtain stock solutions at reduced application rates for each herbicide. Spray solutions of the herbicide combinations (Compound A or Compound B plus HPPD inhibitor herbicide) were prepared by adding weighed amounts or aliquots of the HPPD inhibitor herbicides to the stock solutions of Compound A or Compound B to form 12-mL spray solutions in two-way combinations.
(§3) The spray solutions were applied to the plant material with an overhead Mandel track sprayer equipped with 8002E nozzles calibrated to deliver 187 L/ha over an application area of 0.503 square meters (m^2) at a spray height of 18 inches (43 centimeters (cm)) above the average plant canopy. Control plants were sprayed in the same manner with the solvent blank. All pyridine carboxylate herbicide (component a) application rates are given as “g ae/ha” and all HPPD inhibitor herbicide (component b) application rates are given as “g ai/ha.”
(§4) The treated plants and control plants were placed in a greenhouse as described above and watered by sub-irrigation to prevent wash-off of the test compounds. After 20-22 d, the condition of the test plants as compared with that of the control plants was determined visually and scored on a scale of 0 to 100 percent where 0 corresponds to no injury and 100 corresponds to complete kill.

[2] = tested on: DIGSA, Digitaria sanguinalis (large crabgrass); test: as above; settings: Benzobicyclon 50 g ai/ha
Source text: as §1, §2, §3, §4

[3] = tested on: ECHCG, Echinochloa crus-galli (barnyard grass); test: as above; settings: Benzobicyclon 50 g ai/ha
Source text: as §1, §2, §3, §4

[4] = tested on: KCHSC, Kochia scoparia (kochia); test: as above; settings: Bassia scoparia, post-emergence, read-out: % visual injury Obs
Source text: as §1, §2, §3, §4

[5] = tested on: LOLMU, Lolium multiflorum (Italian ryegrass); test: as above; settings: Benzobicyclon 50 g ai/ha
Source text: as §1, §2, §3, §4

[6] = tested on: SETFA, Setaria faberi (giant foxtail); test: as above; settings: Benzobicyclon 50 g ai/ha
Source text: as §1, §2, §3, §4

[7] = tested on: STEME, Stellaria media (chickweed); test: as above; settings: Benzobicyclon 50 g ai/ha
Source text: as §1, §2, §3, §4

[8] = tested on: ABUTH, Abutilon theophrasti (velvetleaf); test: as above
Source text: as §1, §2, §3, §4

[9] = tested on: CIRAR, Cirsium arvense (Canadian thistle); test: as above
Source text: as §1, §2, §3, §4

[10] = tested on: VIOTR, Viola tricolor (wild pansy); test: as above
Source text: as §1, §2, §3, §4

[11] = tested on: AMARE, Amaranthus retroflexus (pigweed); test: as above
Source text: as §1, §2, §3, §4

[12] = tested on: HELAN, Helianthus annuus (common sunflower); test: as above
Source text: as §1, §2, §3, §4

[13] = tested on: IPOHE, Ipomoea hederacea (ivyleaf morningglory); test: as above; settings: Isoxaflutole 60 g ai/ha
Source text: as §1, §2, §3, §4

[14] = tested on: POLCO, Polygonum convolvulus (wild buckwheat); test: as above
Source text: as §1, §2, §3, §4

[15] = tested on: EPHHL, Euphorbia heterophylla (poinsettia); test: as above; settings: Mesotrione 35 g ai/ha
Source text: as §1, §2, §3, §4

[16] = tested on: BRSNW, Brassica napus (winter rape); test: as above
Source text: as §1, §2, §3, §4

[17] = tested on: CHEAL, Chenopodium album L. (common lambsquarters); test: as above
Source text: as §1, §2, §3, §4

[18] = tested on: MATCH, Matricaria chamomilla (wild chamomile); test: as above
Source text: as §1, §2, §3, §4

[19] = tested on: SASKR, Salsola kali (Russian thistle); test: as above
Source text: as §1, §2, §3, §4

[20] = tested on: SINAR, Sinapis arvensis (wild mustard); test: as above
Source text: as §1, §2, §3, §4

[21] = tested on: HORVS, Hordeum vulgare (spring barley); test: Greenhouse postemergence phytotoxicity on crop, visual injury 20-22 d after application
Source text: as §1, §2, §3, §4

[22] = tested on: TRZAS, Triticum aestivum (spring wheat); test: as above
Source text: as §1, §2, §3, §4

[23] = Mesotrione 35 g ai/ha (Table 8)

CS(=O)(=O)c1ccc(C(=O)C2=C(Sc3ccccc3)C3CCC(C3)C2=O)c(Cl)c1 (stereo not shown) [Benzobicyclon, 3-[2-chloro-4-(methylsulfonyl)benzoyl]-4-(phenylthio)bicyclo[3.2.1]oct-3-en-2-one]
% visual injury Obs ([1]; Benzobicyclon 50 g ai/ha): 8%
% visual injury Obs [2]: 10%
% visual injury Obs [3]: 0%
pest or weed control at 50 g/ha ([4]; KCHSC, Benzobicyclon 50 g ai/ha): 0%
% visual injury Obs [5]: 0%
% visual injury Obs [6]: 0%
% visual injury Obs [7]: 28%

C#CCOC(=O)c1nc(-c2ccc3cc[nH]c3c2F)c(F)c(N)c1Cl [Compound B, propargyl 4-amino-3-chloro-5-fluoro-6-(7-fluoro-1H-indol-6-yl)pyridine-2-carboxylate]
% visual injury Obs ([8]; Compound B 7.5 g ae/ha): 68%
% visual injury Obs ([8]; Compound B 10 g ae/ha): 68%
% visual injury Obs ([9]; Compound B 7.5 g ae/ha): 45%
% visual injury Obs ([9]; Compound B 10 g ae/ha): 45%
% visual injury Obs ([10]; Compound B 7.5 g ae/ha): 10%
% visual injury Obs ([10]; Compound B 10 g ae/ha): 40%

CS(=O)(=O)c1cc(C(F)(F)F)ccc1C(=O)c1cnoc1C1CC1 [Isoxaflutole, (5-cyclopropyl-4-isoxazolyl)[2-(methylsulfonyl)-4-(trifluoromethyl)phenyl]methanone]
% visual injury Obs ([8]; Isoxaflutole 60 g ai/ha): 58%
% visual injury Obs ([11]; Isoxaflutole 60 g ai/ha): 53%
% visual injury Obs ([9]; Isoxaflutole 60 g ai/ha): 70%
% visual injury Obs ([12]; Isoxaflutole 60 g ai/ha): 85%
% visual injury Obs [13]: 38%
pest or weed control at 60 g/ha ([4]; KCHSC, Isoxaflutole 60 g ai/ha): 38%
% visual injury Obs ([14]; Isoxaflutole 60 g ai/ha): 0%
% visual injury Obs ([10]; Isoxaflutole 60 g ai/ha): 25%

CS(=O)(=O)c1ccc(C(=O)C2C(=O)CCCC2=O)c([N+](=O)[O-])c1 [Mesotrione, 2-[4-(methylsulfonyl)-2-nitrobenzoyl]-1,3-cyclohexanedione]
% visual injury Obs ([8]; Mesotrione 35 g ai/ha): 99%
% visual injury Obs [8, 23]: 85%
% visual injury Obs ([11]; Mesotrione 35 g ai/ha): 90%
% visual injury Obs ([9]; Mesotrione 35 g ai/ha): 84%
% visual injury Obs [9, 23]: 73%
% visual injury Obs [15]: 100%
% visual injury Obs ([12]; Mesotrione 35 g ai/ha): 90%
pest or weed control at 35 g/ha ([4]; KCHSC, Mesotrione 35 g ai/ha): 35%
% visual injury Obs ([14]; Mesotrione 35 g ai/ha): 75%
% visual injury Obs ([10]; Mesotrione 35 g ai/ha): 75%
% visual injury Obs [10, 23]: 78%

Cc1ccc(S(=O)(=O)Oc2c(C(=O)c3ccc(Cl)cc3Cl)c(C)nn2C)cc1 [Pyrazolynate, (2,4-dichlorophenyl) [1,3-dimethyl-5-[[(4-methylphenyl)sulfonyl]oxy]-1H-pyrazol-4-yl]methanone]
% visual injury Obs ([11]; Pyrazolynate 225 g ai/ha): 10%
% visual injury Obs ([16]; Pyrazolynate 225 g ai/ha): 0%
% visual injury Obs ([17]; Pyrazolynate 225 g ai/ha): 5%
% visual injury Obs ([9]; Pyrazolynate 225 g ai/ha): 0%
pest or weed control at 225 g/ha ([4]; KCHSC, Pyrazolynate 225 g ai/ha): 0%
% visual injury Obs ([18]; Pyrazolynate 225 g ai/ha): 0%
% visual injury Obs ([14]; Pyrazolynate 225 g ai/ha): 5%
% visual injury Obs ([19]; Pyrazolynate 225 g ai/ha): 0%
% visual injury Obs ([20]; Pyrazolynate 225 g ai/ha): 5%

CS(=O)(=O)c1ccc(C(=O)C2C(=O)CCCC2=O)c(Cl)c1 [Sulcotrione, 2-[2-chloro-4-(methylsulfonyl)benzoyl]-1,3-cyclohexanedione]
% visual injury Obs ([1]; Sulcotrione 75 g ai/ha): 75%
pest or weed control at 75 g/ha [4]: 30%
% visual injury Obs ([21]; Sulcotrione 75 g ai/ha): 8%
% visual injury Obs ([22]; Sulcotrione 75 g ai/ha): 0%

CS(=O)(=O)c1ccc(C(=O)C2C(=O)CCCC2=O)c(Cl)c1COCC(F)(F)F [Tembotrione, 2-[2-chloro-4-(methylsulfonyl)-3-[(2,2,2-trifluoroethoxy)methyl]benzoyl]-1,3-cyclohexanedione]
% visual injury Obs ([11]; Tembotrione 25 g ai/ha): 100%
% visual injury Obs ([16]; Tembotrione 25 g ai/ha): 88%
% visual injury Obs ([17]; Tembotrione 25 g ai/ha): 100%
% visual injury Obs ([9]; Tembotrione 25 g ai/ha): 75%
pest or weed control at 25 g/ha ([4]; KCHSC, Tembotrione 25 g ai/ha): 48%
% visual injury Obs ([18]; Tembotrione 25 g ai/ha): 73%
% visual injury Obs ([14]; Tembotrione 25 g ai/ha): 25%
% visual injury Obs ([19]; Tembotrione 25 g ai/ha): 78%
% visual injury Obs ([20]; Tembotrione 25 g ai/ha): 95%

Cc1c(C(=O)c2cnn(C)c2O)ccc(S(C)(=O)=O)c1C1=NOCC1 [Topramezone, [3-(4,5-dihydro-3-isoxazolyl)-2-methyl-4-(methylsulfonyl)phenyl] (5-hydroxy-1-methyl-1H-pyrazol-4-yl) methanone]
% visual injury Obs ([11]; Topramezone 40 g ai/ha): 100%
% visual injury Obs ([16]; Topramezone 40 g ai/ha): 98%
% visual injury Obs ([17]; Topramezone 40 g ai/ha): 100%
% visual injury Obs ([9]; Topramezone 40 g ai/ha): 20%
pest or weed control at 40 g/ha [4]: 35%
% visual injury Obs ([18]; Topramezone 40 g ai/ha): 30%
% visual injury Obs ([14]; Topramezone 40 g ai/ha): 43%
% visual injury Obs ([20]; Topramezone 40 g ai/ha): 100%
% visual injury Obs ([21]; Topramezone 40 g ai/ha): 38%
% visual injury Obs ([22]; Topramezone 40 g ai/ha): 33%

From patent US12453349B2, “Compositions comprising pyridine carboxylate herbicides and 4-hydroxyphenyl-pyruvate dioxygenase (HPPD) inhibitor herbicides” (Corteva Agriscience LLC, priority 2018, dated 2025)
